The target in one assay is T1, 4BAH2 peptide (Hepatitis C virus genotype 1b, UniProt Q9WMX2).
T1 construct: purchased Anaspec Corporation (San Jose, Calif., USA); host or cells: chemical synthesis
Nature of the assay: AFM of 4BAH2 peptide oligomerization on SiOx substrate. The class given is biochemical. On the procedure:
Atomic Force Microscopy. The AFM experiments were carried out on a XE-Bio (Park Systems Suwon, Korea) in contact and non-contact modes. Rectangular-shaped silicon cantilevers were used (SICON for contact mode and ACT for non-contact mode, AppNano, Santa Clara, Calif.). […] All measurements were performed in a PBS buffer. Images in fluid were obtained both in contact mode with an imaging force of less than 200 pN and in noncontact mode. However, images presented in this manuscript were only obtained in non-contact mode in fluid. The scan line speed was optimized between 0.3 Hz to 1 Hz with a pixel number of 256×256, depending on the scan size. Images were recorded in height, amplitude, phase, and error modes. All measurements were done on the height images. All images shown were subjected to a first order plane-fitting procedure to compensate for sample tilt. The cross-sectional analysis was carried out on images subjected only to a first order plane-fitting procedure. Topographical and grain analyses were performed using the software XEI 1.7.1 supplied by Park Systems (Suwon, Korea).

The target of a further assay is genotype 1b 4BAH2 (Hepatitis C virus genotype 1b, UniProt Q9WMX2). Nature of the assay: DLS assay of 4BAH2-induced POPC lipid vesicle aggregation, genotype 1b peptide. To be noted: POPC vesicles. Also on record: purchased Anaspec Corporation (San Jose, Calif., USA); host or cells: chemical synthesis. The class given is biochemical. On the procedure:
Dynamic light scattering. Dynamic light scattering was performed by a 90Plus particle size analyzer, and the results were analyzed by digital autocorrelator software (Brookhaven Instruments Corporation, New York). All measurements were taken at a scattering angle of 90°, where the reflection effect is minimized. Dynamic light scattering (DLS) is a well established technique for measuring particle size over the size range from a few nanometers to a few microns. The concept uses the idea that small particles in a suspension move in a random pattern, i.e., Brownian motion. When a coherent source of light (such as a laser) having a known frequency is directed at the moving particles, the light is scattered at a different frequency. The shift in light frequency is related to the size of the particles causing the shift. Due to their higher average velocity, smaller particles cause a greater shift in the light frequency than larger particles. […]
Dynamic Light Scattering. Dynamic light scattering (DLS) was performed using a doubled, Nd:YAG laser (model 532 DPSS, Coherent Laser Group, Santa Clara, Calif.) with a wavelength, λ, of […] and a Brookhaven digital autocorrelator, and analyzed by digital autocorrelator software (Brookhaven Instruments Corporation, New York, USA). […] DLS results were analyzed to give an intensity-weighted size distribution using a discrete Laplace inversion routine. […]

genotype 1b 4BAH2, sequence (Q9WMX2 1754-1776): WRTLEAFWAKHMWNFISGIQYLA

Consider `CC(C)CN(C)c1nc(N)c(C(=O)NC(=N)N)nc1Cl` [C4, 3-amino-N-carbamimidoyl-6-chloro-5-(isobutyl(methyl)amino)pyrazine-2-carboxamide], for which the “Effect on 4BAH2 peptide aggregation / self-oligomerization (AFM)” value on 4BAH2 peptide is reported as “inhibit peptide aggregation”. In addition, the “Inhibition of genotype 1b 4BAH2-mediated vesicle aggregation (DLS)” value at genotype 1b 4BAH2 is on record as “inhibited genotype 1b 4BAH2-mediated vesicle aggregation”.

For the origin of these results see patent publication US20110217265A1, “Screening for Inhibitors of HCV Amphipathic Helix (AH) Function” (priority 2008, published 2011).
